Results from US20250282768A1 (Janssen Pharmaceutica NV, priority 2022, published 2025).

These molecules were tested on p-IKKa levels in L363 (NIK translocated multiple myeloma) cells (assay: Assay 2: Effect of compounds on p-IKKa levels in L363 (NIK translocated multiple myeloma) cells). Settings: Homo sapiens, L-363, 6 h, read-out: Assay 2 IC50 (nM), p-IKKa (Ser 176/180) in BAFF stimulated L363 cells with MG132, 6 h; average if tested more than once.
Type: cell-based
Method in brief: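 Read-out is p-IKKa Ser176/180 by AlphaLISA SureFire in lysates. Cells were BAFF-primed (250 ng/ml) overnight or left unstimulated, then exposed 6 h at 37 °C to compound with MG132 (10 μM), 0.3% DMSO. IC50 from sigmoidal curve fit, normalized between stimulated and unstimulated controls.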
`CN1CC[C@@](O)(c2cc(-c3cccc(-c4ccnc(Nc5cnn(CC(F)F)c5)n4)n3)no2)C1=O` [Example 56, (R)-3-(3-(6-(2-((1-(2,2-Difluoroethyl)-1H-pyrazol-4-yl)amino)pyrimidin-4-yl)pyridin-2-yl)isoxazol-5-yl)-3-hydroxy-1-methylpyrrolidin-2-one] showed an IC50 of under 50 nM. Work on `Cc1nn(CC(F)F)cc1Nc1nccc(-c2cccc(-c3cc([C@]4(O)CCN(C)C4=O)on3)n2)n1` [Example 57, (R)-3-(3-(6-(2-((1-(2,2-Difluoroethyl)-3-methyl-1H-pyrazol-4-yl)amino)pyrimidin-4-yl)pyridin-2-yl)isoxazol-5-yl)-3-hydroxy-1-methylpyrrolidin-2-one] yielded an IC50 of under 50 nM. In the case of `COc1nn(CC(F)F)cc1Nc1nccc(-c2cccc(-c3cc([C@]4(O)CCN(C)C4=O)on3)n2)n1` [Example 58, (R)-3-(3-(6-(2-((1-(2,2-Difluoroethyl)-3-methoxy-1H-pyrazol-4-yl)amino)pyrimidin-4-yl)pyridin-2-yl)isoxazol-5-yl)-3-hydroxy-1-methylpyrrolidin-2-one], the IC50 is reported as under 50 nM. In the case of `CN1CC[C@@](O)(c2cc(-c3cccc(-c4ccnc(Nc5cn(C)nc5OCC(F)(F)F)n4)n3)no2)C1=O` [Example 59, (R)-3-Hydroxy-1-methyl-3-(3-(6-(2-((1-methyl-3-(2,2,2-trifluoroethoxy)-1H-pyrazol-4-yl)amino)pyrimidin-4-yl)pyridin-2-yl)isoxazol-5-yl)pyrrolidin-2-one], the IC50 is reported as under 50 nM. For `CN1CC[C@@](O)(c2cc(-c3cccc(-c4ccnc(Nc5ccn(CCF)n5)n4)n3)no2)C1=O` [Example 60, (R)-3-(3-(6-(2-((1-(2-Fluoroethyl)-1H-pyrazol-3-yl)amino)pyrimidin-4-yl)pyridin-2-yl)isoxazol-5-yl)-3-hydroxy-1-methylpyrrolidin-2-one], the IC50 was under 50 nM. Molecule `CN1CC[C@@](O)(c2cc(-c3cccc(-c4ccnc(Nc5cnn(CCF)c5)n4)n3)no2)C1=O` [Example 61, (R)-3-(3-(6-(2-((1-(2-Fluoroethyl)-1H-pyrazol-4-yl)amino)pyrimidin-4-yl)pyridin-2-yl)isoxazol-5-yl)-3-hydroxy-1-methylpyrrolidin-2-one] has an IC50 of under 50 nM. Molecule `CN1CC[C@@](O)(c2cc(-c3cccc(-c4ccnc(Nc5cnn(CCN6CCOCC6)c5)n4)n3)no2)C1=O` [Example 62, (R)-3-Hydroxy-1-methyl-3-(3-(6-(2-((1-(2-morpholinoethyl)-1H-pyrazol-4-yl)amino)pyrimidin-4-yl)pyridin-2-yl)isoxazol-5-yl)pyrrolidin-2-one] has an IC50 of under 50 nM. `Cc1oncc1Nc1nccc(-c2cccc(-c3cc([C@]4(O)CCN(C)C4=O)on3)n2)n1` [Example 63, (R)-3-Hydroxy-1-methyl-3-(3-(6-(2-((5-methylisoxazol-4-yl)amino)pyrimidin-4-yl)pyridin-2-yl)isoxazol-5-yl)pyrrolidin-2-one] showed an IC50 of under 50 nM. Work on `CN1CC[C@@](O)(c2cc(-c3cccc(-c4ccnc(Nc5cnn(CC(C)(C)O)c5)n4)n3)no2)C1=O` [Example 64, (R)-3-Hydroxy-3-(3-(6-(2-((1-(2-hydroxy-2-methylpropyl)-1H-pyrazol-4-yl)amino)pyrimidin-4-yl)pyridin-2-yl)isoxazol-5-yl)-1-methylpyrrolidin-2-one] yielded an IC50 of under 50 nM. `CN1CC[C@@](O)(c2cc(-c3cccc(-c4ccnc(Nc5cn(C)nn5)n4)n3)no2)C1=O` [Example 65, (R)-3-Hydroxy-1-methyl-3-(3-(6-(2-((1-methyl-1H-1,2,3-triazol-4-yl)amino)pyrimidin-4-yl)pyridin-2-yl)isoxazol-5-yl)pyrrolidin-2-one] gave an IC50 of 50 to 500 nM. `CN1CC[C@@](O)(c2cc(-c3cccc(-c4ccnc(NC5COC5)n4)n3)no2)C1=O` [Example 66, (R)-3-Hydroxy-1-methyl-3-(3-(6-(2-(oxetan-3-ylamino)pyrimidin-4-yl)pyridin-2-yl)isoxazol-5-yl)pyrrolidin-2-one] was tested, and the IC50 was 50 to 500 nM. `CN1CC[C@@](O)(c2cc(-c3cccc(-c4ccnc(NCCC(F)(F)F)n4)c3)no2)C1=O` [Example 71, (R)-3-Hydroxy-1-methyl-3-(3-(3-(2-((3,3,3-trifluoropropyl)amino)pyrimidin-4-yl)phenyl)isoxazol-5-yl)pyrrolidin-2-one] showed an IC50 of over 500 nM. `CN1CC[C@@](O)(c2cc(-c3cccc(-c4ccnc(Nc5cnn(C)c5)n4)c3)no2)C1=O` [Example 72, (R)-3-Hydroxy-1-methyl-3-(3-(3-(2-((1-methyl-1H-pyrazol-4-yl)amino)pyrimidin-4-yl)phenyl)isoxazol-5-yl)pyrrolidin-2-one] was tested, and the IC50 was over 500 nM. Work on `[2H]C([2H])([2H])n1cc(Nc2nccc(-c3cccc(-c4cc([C@]5(O)CCN(C)C5=O)on4)n3)n2)cn1` [Example 73, (R)-3-Hydroxy-1-methyl-3-(3-(6-(2-((1-(methyl-d3)-1H-pyrazol-4-yl)amino)pyrimidin-4-yl)pyridin-2-yl)isoxazol-5-yl)pyrrolidin-2-one] yielded an IC50 of under 50 nM. `[2H]C([2H])([2H])C([2H])([2H])n1cc(Nc2nccc(-c3cccc(-c4cc([C@]5(O)CCN(C)C5=O)on4)n3)n2)cn1` [Example 74, (R)-3-(3-(6-(2-((1-(Ethyl-d5)-1H-pyrazol-4-yl)amino)pyrimidin-4-yl)pyridin-2-yl)isoxazol-5-yl)-3-hydroxy-1-methylpyrrolidin-2-one] was tested, and the IC50 was under 50 nM. `CN1CC[C@@](O)(c2cn(-c3cccc(-c4ccnc(Nc5ccn(C)n5)n4)n3)nn2)C1=O` [Example 75, (R)-3-Hydroxy-1-methyl-3-(1-(6-(2-((1-methyl-1H-pyrazol-3-yl)amino)pyrimidin-4-yl)pyridin-2-yl)-1H-1,2,3-triazol-4-yl)pyrrolidin-2-one] showed an IC50 of under 50 nM. `CN1CC[C@@](O)(c2cc(-c3cccc(-c4ccnc(Nc5cncc(F)c5)n4)n3)no2)C1=O` [Example 86, (R)-3-(3-(6-(2-((5-Fluoropyridin-3-yl)amino)pyrimidin-4-yl)pyridin-2-yl)isoxazol-5-yl)-3-hydroxy-1-methylpyrrolidin-2-one] showed an IC50 of under 50 nM. In the case of `CN1CC[C@@](O)(c2cc(-c3cccc(-c4ccnc(Nc5cnn(C6CCNC6)c5)n4)n3)no2)C1=O` (stereo partly drawn) [Example 90, (3R)-3-Hydroxy-1-methyl-3-(3-(6-(2-((1-(pyrrolidin-3-yl)-1H-pyrazol-4-yl)amino)pyrimidin-4-yl)pyridin-2-yl)isoxazol-5-yl)pyrrolidin-2-one], the IC50 is reported as 50 to 500 nM. `CCn1cc(Nc2nccc(-c3cccc(-c4cc([C@]5(O)CCN(C)C5=O)no4)n3)n2)cn1` [Example 91, (R)-3-(5-(6-(2-((1-Ethyl-1H-pyrazol-4-yl)amino)pyrimidin-4-yl)pyridin-2-yl)isoxazol-3-yl)-3-hydroxy-1-methylpyrrolidin-2-one] gave an IC50 of under 50 nM. Work on `C[C@@H]1C[C@@](O)(c2cc(-c3cccc(-c4ccnc(Nc5ccn(C)n5)n4)n3)no2)C(=O)N1C` [Example 92, (3R,5R)-3-Hydroxy-1,5-dimethyl-3-(3-(6-(2-((1-methyl-1H-pyrazol-3-yl)amino)pyrimidin-4-yl)pyridin-2-yl)isoxazol-5-yl)pyrrolidin-2-one] yielded an IC50 of 50 to 500 nM. For `CN1C(=O)[C@](O)(c2cc(-c3cccc(-c4ccnc(Nc5ccn(C)n5)n4)n3)no2)[C@H]2C[C@H]21` [Example 93, (1R,4R,5S)-4-Hydroxy-2-methyl-4-(3-(6-(2-((1-methyl-1H-pyrazol-3-yl)amino)pyrimidin-4-yl)pyridin-2-yl)isoxazol-5-yl)-2-azabicyclo[3.1.0]hexan-3-one], the IC50 was 50 to 500 nM. `CN1CC(F)(F)[C@@](O)(c2cc(-c3cncc(-c4ccnc(Nc5ccn(C)n5)n4)n3)no2)C1=O` [Example 94, (R)-4,4-Difluoro-3-hydroxy-1-methyl-3-(3-(6-(2-((1-methyl-1H-pyrazol-3-yl)amino)pyrimidin-4-yl)pyrazin-2-yl)isoxazol-5-yl)pyrrolidin-2-one] gave an IC50 of 50 to 500 nM. `CN1CC[C@@](O)(c2cc(-c3cncc(-c4ccnc(Nc5ccn(C)n5)n4)n3)no2)C1=O` [Example 95, (R)-3-Hydroxy-1-methyl-3-(3-(6-(2-((1-methyl-1H-pyrazol-3-yl)amino)pyrimidin-4-yl)pyrazin-2-yl)isoxazol-5-yl)pyrrolidin-2-one] was tested, and the IC50 was 50 to 500 nM. Work on `CN1CC[C@@](O)(c2cnn(-c3cccc(-c4ccnc(Nc5cn(CC(F)F)nc5OC5CC5)n4)n3)c2)C1=O` [Example 97, (R)-3-(1-(6-(2-((3-Cyclopropoxy-1-(2,2-difluoroethyl)-1H-pyrazol-4-yl)amino)pyrimidin-4-yl)pyridin-2-yl)-1H-pyrazol-4-yl)-3-hydroxy-1-methylpyrrolidin-2-one] yielded an IC50 of 50 to 500 nM. In the case of `CN1CC[C@@](O)(c2cnn(-c3cccc(-c4ccnc(Nc5cnn6ccccc56)n4)n3)c2)C1=O` [Example 98, (R)-3-Hydroxy-1-methyl-3-(1-(6-(2-(pyrazolo[1,5-a]pyridin-3-ylamino)pyrimidin-4-yl)pyridin-2-yl)-1H-pyrazol-4-yl)pyrrolidin-2-one], the IC50 is reported as 50 to 500 nM. `Cc1cc(-c2cc([C@]3(O)CCN(C)C3=O)on2)nc(-c2ccnc(Nc3cnn(C)c3)n2)c1` [Example 99, (R)-3-Hydroxy-1-methyl-3-(3-(4-methyl-6-(2-((1-methyl-1H-pyrazol-4-yl)amino)pyrimidin-4-yl)pyridin-2-yl)isoxazol-5-yl)pyrrolidin-2-one] was tested, and the IC50 was under 50 nM. `Cc1cc(-c2cc([C@]3(O)CCN(C)C3=O)on2)nc(-c2ccnc(Nc3ccn(C)n3)n2)c1` [Example 100, (R)-3-Hydroxy-1-methyl-3-(3-(4-methyl-6-(2-((1-methyl-1H-pyrazol-3-yl)amino)pyrimidin-4-yl)pyridin-2-yl)isoxazol-5-yl)pyrrolidin-2-one] gave an IC50 of under 50 nM. In the case of `CN1CC[C@@](O)(c2cc(-c3cccc(-c4cc(Cl)nc(Nc5ccn(C)n5)n4)n3)no2)C1=O` [Example 101, (R)-3-(3-(6-(6-Chloro-2-((1-methyl-1H-pyrazol-3-yl)amino)pyrimidin-4-yl)pyridin-2-yl)isoxazol-5-yl)-3-hydroxy-1-methylpyrrolidin-2-one], the IC50 is reported as over 500 nM.
